Measured values as given in a melting point compilation (Tetko et al.; mined from patent text by program, amines drawn as free bases though some values may be those of a salt).

`[N-]=[N+]=CC(=O)CC1CCCCC1` and `Nc1cccc2c1nnn2C1CCCCC1` cannot be ordered by melting point: 58 to 62 °C for the first, 54 to 60 °C for the second.

First: Cc1sc2cc3ccccc3c(-c3ccc(OS(=O)(=O)c4ccc(C(=O)O)c(O)c4)c(C4CCCC4)c3)c2c1C
Second: Cc1ccc(S(=O)(=O)NC(=O)OCCc2ccc(-n3c(C4CCCCC4)nc4c(C)nc(C)cc43)cc2)cc1
The melting point of the first is higher: 230 to 237 °C for the first, 168 °C for the second.

First: CCN1C(=O)N(c2cccc(C#N)c2C(F)(F)F)C(=O)C1(C)COC(=O)C(C)C (centres undefined)
Second: CCOC(=O)c1cnc2n(c1=O)-c1ccccc1N(C(C)=O)C2
The melting point of the first is lower: 85 °C for the first, 152 to 155 °C for the second.

First: CNC(=O)[C@@H](N)C(C)(C)C
Second: Cc1ccc(S(=O)(=O)OCCNC(=O)OC(C)(C)C)cc1
The melting point of the first is higher: 90 to 93 °C for the first, 64 to 66 °C for the second.

Compared with `O=C(c1cccc([N+](=O)[O-])c1)N1CCOCC1`, `Nc1cc([N+](=O)[O-])cc2c1CCCC2` is lower in melting point: 83.5 to 85 °C for the first, 77 °C for the second.

First: Cc1c(-c2ccc([N+](=O)[O-])o2)nc(N)n2c(C)nnc12
Second: CN1Cc2c(-c3nnc(CN)o3)ncn2-c2ccsc2C1=O
The melting point of the first is higher: 290 °C for the first, 217 to 219 °C for the second.

Compared with `CCCN1CC(c2cccc(Cl)c2)=C(c2ccc(S(N)(=O)=O)cc2)C1=O`, `Cc1oc(-c2ccc(S(C)(=O)=O)cc2)c(Oc2ccc(F)cc2)c(=O)c1Cl` is higher in melting point: 149 to 150 °C for the first, 279 °C for the second.

Compared with `COc1ccc(C2COc3c(ccc(O)c3O)C2)cc1OC` (centres undefined), `COc1ccc(C2CNC(=O)C2)cc1OC` (centres undefined) is lower in melting point: 176 °C for the first, 120 °C for the second.

First: CC(C)(C)C1=NC=C2C=CC(=O)NC3=C2N1CC3
Second: CN1Cc2cncn2-c2cccnc2C1=O
The melting point of the first is higher: 246 to 248 °C for the first, 199 to 201 °C for the second.

First: CC(COc1ccc2c(c1)CCCC2=O)n1ccnc1 (centres undefined)
Second: O=C1CCc2ccc(OCc3ccccc3)cc21
The melting point of the first is higher: 132 to 135 °C for the first, 99 to 101 °C for the second.

First: COc1ccc(CSc2ccc([N+](=O)[O-])cc2CBr)cc1
Second: O=[N+]([O-])c1ccc(S(=O)(=O)c2cc(Br)nc(Br)c2)cc1
The melting point of the first is lower: 98 to 99 °C for the first, 204 to 206 °C for the second.

First: CS(=O)(=O)NCCCCC(=O)Nc1nc2c(s1)CCCc1ccc(F)cc1-2
Second: CC(=O)Nc1cc(-n2c(-c3ccccc3)cc3c2CCCC3)cc(C(=O)O)c1O
The melting point of the first is lower: 145 to 147 °C for the first, 232 to 234 °C for the second.

First: COc1ccccc1SCC1SCCN1C(=O)CCl (centres undefined)
Second: CCOC(=O)C(CCc1ccccc1)NC1CSC(c2cccs2)CN(CC(=O)O)C1=O (centres undefined)
The melting point of the first is lower: 127 to 129 °C for the first, 168 °C for the second.

First: CCC(C(=O)OC1C=CC=CO1)C(=O)OC1C=CC=CO1 (centres undefined)
Second: CCOC(=O)CC(=O)CC(O)/C=C/c1c(-c2ccccc2)ccnc1C (centres undefined)
The melting point of the first is higher: 90 to 92 °C for the first, 83 to 84 °C for the second.

First: O=C1c2ccccc2C(O)N1CCCN1CCN(c2ccc(Cl)cc2)CC1 (centres undefined)
Second: O=C(OCc1ccccc1)N1CCC(c2nc(CO)c(-c3ccc(Cl)cc3)o2)CC1
The melting point of the first is higher: 173 °C for the first, 97 to 99 °C for the second.

First: CCCCCC(=O)C=Cc1ccc(Cl)cc1
Second: O=C(C=Cc1ccco1)CCCCCl
The melting point of the first is lower: 44 to 47 °C for the first, 50 to 52 °C for the second.

First: O=C(CCCCN1CCC(Cc2ccccc2)CC1)c1ccc2c(c1)C(=O)c1cc(C(=O)CCCCN3CCC(Cc4ccccc4)CC3)ccc1-2
Second: O=C1c2ccccc2COc2ccc(CCN3CCC(n4c(=O)[nH]c5ccccc54)CC3)cc21
The melting point of the first is higher: 124 to 126 °C for the first, 116 to 120 °C for the second.

Compared with `CCCOc1ccc2c(c1)C(c1ccc(OC)cc1OCc1ccccc1)=C(C(=O)OC)[C@H]2c1ccc2c(c1)OCO2`, `CC(=O)Oc1cc(OCC(=O)c2ccc3c(c2)C(C)(C)CCC3(C)C)ccc1C(=O)OCc1ccccc1` is higher in melting point: 114 to 117 °C for the first, 137 to 138 °C for the second.

First: NC1=CN(Cc2ccc(Cl)cc2)CN=C1
Second: CC1COC(Cn2nc[nH]c2=S)(c2ccc(Oc3ccc(Cl)cc3)cc2Cl)O1 (centres undefined)
The melting point of the first is lower: 128 to 129 °C for the first, 130 °C for the second.

First: COCc1nnc(-c2cccnc2)n1-c1c(Cl)c(C)cc2nc(OC)c(OC)nc12
Second: COc1cc2ncc(C#N)c(Nc3cc(C)ccc3O)c2cc1OC
The melting point of the first is lower: 183 to 184 °C for the first, 198 to 200 °C for the second.

Compared with `Cc1cc(OCC(F)(F)F)c(NC(=O)CN2CCN(CCSc3nc4ccccc4o3)CC2)c(OCC(F)(F)F)n1`, `CC(=O)NC(Cc1c[nH]c2ccccc12)C(=O)NCc1cc(C(F)(F)F)cc(C(F)(F)F)c1` (centres undefined) is higher in melting point: 141 to 142 °C for the first, 171 to 173 °C for the second.

First: CCCCCCCCCCCCCCOc1ccccc1NS(=O)(=O)c1ccc2c(N=Nc3ccc(OC)cc3)c(O)ccc2c1
Second: COc1ccc(-c2ccc3c(c2)c2ccc(Cl)nc2n3S(=O)(=O)c2ccccc2)cc1
The melting point of the first is lower: 118 to 121 °C for the first, 176 to 178 °C for the second.

First: CS(=O)CCNC(=O)CC(O)(Cn1cncn1)c1ccc(Cl)cc1Cl (centres undefined)
Second: OC(CNc1ccc(Cl)cc1Cl)Cn1ccnc1 (centres undefined)
The melting point of the first is higher: 168 to 170 °C for the first, 107 to 109 °C for the second.

Compared with `Cc1csc(-c2ccc3c(=O)n(CC(C)C)c(CN)c(-c4ccccc4)c3c2)n1`, `CC1=C(C#N)C(c2cccc3nnc(-c4ccccc4)cc23)C(C(=O)OC(C)C)=C(C)N1` (centres undefined) is higher in melting point: 162 to 163 °C for the first, 200 to 202 °C for the second.

Compared with `CCCCCCCc1ccc(-c2ccc(-c3cc(F)cc(F)c3)cc2)nc1`, `CCCCCCCCOc1ccc(-c2ccc(C(C)OC(=O)CCC)cc2)cc1` (single isomer, unassigned; (+)) is lower in melting point: 185 to 186 °C for the first, 56.9 °C for the second.

`CCCCc1c(OS(=O)(=O)c2ccc(C)cc2)n(-c2ccccc2)n(-c2ccccc2)c1=O` and `CC(=O)C(C(=O)Cc1ccccc1)C(=O)NS(=O)(=O)c1ccc(C)cc1` (centres undefined) cannot be ordered by melting point: 112 to 121 °C for the first, 120 °C for the second.

Compared with `CC(O)C#Cc1ncn2c1CN(C)C(=O)c1ccccc1-2` (centres undefined), `Cc1cc(NC2=NCCN2)n(-c2ccccc2C)n1` is higher in melting point: 161 to 162 °C for the first, 168 to 169 °C for the second.

First: COc1ccc(OC)c(Cc2cc(C)cc(OC)c2C(=O)O)c1
Second: COc1cc2c(cc1OC)=C(CCCl)OCC(C)(C)C=2
The melting point of the first is higher: 172 to 174 °C for the first, 66 to 67 °C for the second.

First: Nc1ccc2c(CCl)cc(O)nc2n1
Second: Nc1nc2ccccc2c2c1ncn2CC1(O)CCCC1
The melting point of the first is higher: greater than 280 °C for the first, 254 to 255 °C for the second.

Compared with `CCOC(=O)c1cnc2c(c(C)nc3cc(C)nn32)c1N1CCCCC1`, `COc1ccc(-c2cc(C(=O)C(C)CN3CCCC3)on2)cc1` (centres undefined) is lower in melting point: 161 to 163 °C for the first, 75 to 77 °C for the second.

First: CCOc1nn(C(=O)N(CCCF)S(=O)(=O)N=c2[nH]ccs2)c(=O)n1C
Second: CCCCNC(=O)c1nc2cnn(CC)c2nc1OCC
The melting point of the first is higher: 178 °C for the first, 115 to 117 °C for the second.

First: CC12CCC(OC(=O)c3ccc([N+](=O)[O-])cc3)CC1=CCC1C2CCC2(C)C(=NO)CCC12 (centres undefined)
Second: COC(=O)C1=C(C)Nc2ccccc2SC1c1cccc([N+](=O)[O-])c1 (centres undefined)
The melting point of the first is higher: 185 to 188 °C for the first, 140 to 142 °C for the second.

`O=Cc1ccc(OC2CCN(c3ccccn3)CC2)cc1` and `O=C(O)c1cn(C2CC2)c2cc(N3CCNC(COc4ccccc4)C3)c(F)cc2c1=O` (centres undefined) cannot be ordered by melting point: 114 to 116 °C for the first, 112 to 115 °C for the second.

First: CCNC(=O)NC[C@H](O)c1cccc(O)c1
Second: CCn1cc(CN(C(=O)C2CCCc3cc(O)ccc32)c2ccc(C(C)C)cc2)cn1 (centres undefined)
The melting point of the first is lower: 102 to 105 °C for the first, 146 to 147 °C for the second.

Compared with `COc1cc(OC)nc(-n2c(C(F)(F)F)nc3cc(C)ccc32)n1`, `CS(=O)(=O)c1cccc(NC(=O)c2cnn3c(C(F)F)cc(-c4ccc(C(F)(F)F)cc4)nc23)c1` is higher in melting point: 93 to 96 °C for the first, 251 °C for the second.

`CNC(C)C/C=C/c1cnc(N)c(C)c1` (centres undefined) and `CN=NNc1ccc(C)cc1` cannot be ordered by melting point: 78 to 81 °C for the first, 77 to 80 °C for the second.

First: CN(c1cccc2cc(C(=O)NCC3(SCc4ccccc4)CCN(C(=O)OC(C)(C)C)CC3)[nH]c12)S(=O)(=O)c1cccs1
Second: O=C(NCc1ccccc1)Nc1ccc(CN2C(=O)[C@H]3CCC[C@H]3N(C(=O)CN3C(=O)c4ccccc4C3=O)c3ccccc32)cc1 (relative stereo)
The melting point of the first is higher: 195 to 197 °C for the first, 169 to 171 °C for the second.

Compared with `COc1ccc(CCNC(=O)[C@@H](O)CO)cc1OC1CCCC1`, `COC(=O)[C@@H]1CN(C#N)C[C@H]1c1ccc(OC)c(OC2CCCC2)c1` (relative stereo) is higher in melting point: 54 to 55 °C for the first, 78 to 80 °C for the second.

First: O=C1Nc2cccc(-c3cccc(NC(=O)c4ccc(S(=O)(=O)F)cc4)c3)c2/C1=C/c1ccc[nH]1
Second: O=C(Nc1cccc2c(=O)cc(-c3nnn[nH]3)oc12)c1ccc2c(c1)CC(COCc1ccc(F)cc1)O2 (centres undefined)
The melting point of the first is lower: 148 to 151 °C for the first, 229 to 232 °C for the second.

First: CCCc1c(COc2ccc(Cc3nnn(Cc4ccc(-c5nnn[nH]5)cc4)n3)cc2)ccc(C(C)=O)c1O
Second: N=C(Cc1ccccc1-n1cnc2cnc3ccc(-c4ccccc4)cc3c21)NO
The melting point of the first is lower: 86 to 88 °C for the first, 253 to 254 °C for the second.

First: CON=C1CSc2ccccc2CN1
Second: C=CC(C)(O)CN1CCC2(CC1)CSC1=C(O2)c2ccccc2C(=O)C1=O (centres undefined)
The melting point of the first is higher: 101 to 102 °C for the first, 74 to 77 °C for the second.

First: O=C(NCCc1ccccc1)c1ccccc1I
Second: OCCN1CCOC(c2ccccc2)(c2ccccc2)CC1
The melting point of the first is higher: 125 to 126 °C for the first, 122 to 123 °C for the second.

First: O=C(O)C1(c2ccsc2)CC1
Second: OCCC1(CCO)CCN(Cc2ccccc2)CC1
The melting point of the first is higher: 132 to 133 °C for the first, 75 to 78 °C for the second.

First: O=C(NCC1(O)CCCCCC1)c1cc(-c2cccnc2N2CCC(C(=O)O)CC2)ccc1Cl
Second: Cc1ccc2c(C3CCN(CCN4CCN(C(C)C)C4=O)CC3)cn(-c3ccc(F)cc3)c2c1
The melting point of the first is lower: 117 to 119 °C for the first, 124 °C for the second.

First: CCC(C)(C)OC(=O)OOC1CC(C)(C)N(C(C)=O)C(C)(C)C1
Second: CCOC(=O)C1=C(C)S(=O)CCS1(=O)=O (centres undefined)
The melting point of the first is lower: 70 to 73 °C for the first, 138 to 140 °C for the second.

First: O=C(O)CCc1cnoc1-c1ccccc1
Second: Oc1ccccc1-n1cccc1
The melting point of the first is higher: 90 to 91 °C for the first, 52 to 54 °C for the second.

Compared with `C[C@@H](O[C@H]1CCCN(Cc2n[nH]c(=O)[nH]2)[C@H]1c1ccccc1)c1cccc(C(F)(F)F)c1`, `NC(=CC(=O)N1CCn2c(nnc2C(F)(F)F)C1)Cc1cc(F)c(F)cc1F` is higher in melting point: 143 to 145 °C for the first, 271 °C for the second.

First: Oc1ccc(-c2cc3cc(Cl)ccc3o2)cc1
Second: Clc1ccc(Nc2cncc(-n3cc4ccccc4n3)n2)cc1
The melting point of the first is lower: 216 to 218 °C for the first, 249 to 252 °C for the second.

Compared with `CCCCCCCCCCCCc1ccccc1C(Sc1nc(C)c(C(=O)O)s1)C(=O)O` (centres undefined), `CC1(C)OC(=O)C(C)(N=Nc2ccc(F)cc2Br)C(=O)O1` is higher in melting point: 88 to 91 °C for the first, 92 to 93 °C for the second.

In the case of `Cc1noc(NS(=O)(=O)c2cc(Cl)c(Cl)s2)c1Br`, the melting point is reported as 135 to 138 °C.
